These results are taken from patent US20260265195A1, “SARM1 MODULATORS, PREPARATIONS, AND USES THEREOF” (SIRONAX LTD, priority 2022, published 2026).

For the experiment, the target named is T1, SARM1 (50-724) (Homo sapiens, UniProt Q6SZW1).
T1 construct: Purified SARM1 (50-724) with a final concentration of 2 nM
T1 sequence (Q6SZW1 50-724): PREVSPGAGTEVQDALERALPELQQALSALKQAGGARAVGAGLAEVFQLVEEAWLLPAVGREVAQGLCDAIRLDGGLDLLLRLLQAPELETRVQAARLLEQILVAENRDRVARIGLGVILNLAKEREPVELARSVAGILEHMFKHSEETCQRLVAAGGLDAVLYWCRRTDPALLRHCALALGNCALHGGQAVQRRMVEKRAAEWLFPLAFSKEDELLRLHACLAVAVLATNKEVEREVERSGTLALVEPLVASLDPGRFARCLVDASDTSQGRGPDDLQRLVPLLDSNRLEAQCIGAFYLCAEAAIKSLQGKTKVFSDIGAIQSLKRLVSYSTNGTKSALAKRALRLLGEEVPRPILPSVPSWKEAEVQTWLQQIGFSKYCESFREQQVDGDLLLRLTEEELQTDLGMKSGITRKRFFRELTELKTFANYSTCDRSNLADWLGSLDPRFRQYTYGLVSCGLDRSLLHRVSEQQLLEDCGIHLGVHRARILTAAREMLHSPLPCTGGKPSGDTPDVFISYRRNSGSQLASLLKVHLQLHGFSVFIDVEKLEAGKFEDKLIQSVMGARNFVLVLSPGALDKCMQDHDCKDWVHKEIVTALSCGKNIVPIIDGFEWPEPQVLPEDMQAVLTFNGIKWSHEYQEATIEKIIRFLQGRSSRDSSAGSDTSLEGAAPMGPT
The experiment can be described thus: SARM1 (50-724) enzymatic assay (NMN-activated NAD+ hydrolysis, LC-MS/MS readout). It counts as biochemical. The following applies: purified SARM1 (50-724) 2 nM, 200 μM NMN activator, 100 μM NAD+ substrate, 1 h at room temperature, read-out: IC50 (SARM1 inhibitory activity). The method, boiled down:
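NMN-activated NAD+ hydrolysis: compound pre-incubated 15 min at room temperature with 2 nM SARM1 (50-724) at 1% DMSO in DPBS; 100 μM NAD+ plus 200 μM NMN added and reacted 1 h at RT. Acetonitrile quench, LC-MS/MS readout.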
Usually IC50 stands for the concentration that gives 50% inhibition. Consider `CNC(=O)CN(C(=O)c1nc2cc(C(F)(F)F)ccc2[nH]1)c1cccc(Cl)c1Cl` [Compound 182, N-(2,3-dichlorophenyl)-N-(2-(methylamino)-2-oxoethyl)-5-(trifluoromethyl)-1H-benzo[d]imidazole-2-carboxamide], for which the IC50 is at most 100 nM.

On to `CC(C)(O)c1ccc2[nH]c(C(=O)N(CC3(F)COC3)c3cccc(Cl)c3Cl)nc2c1` [Compound 183], for which the IC50 is at most 100 nM. In the case of `Cc1c(Cl)cncc1N(CC1(F)COC1)C(=O)c1nc2cc(C(F)(F)F)ccc2[nH]1` [Compound 184, N-(5-chloro-4-methylpyridin-3-yl)-N-((3-fluorooxetan-3-yl)methyl)-5-(trifluoromethyl)-1H-benzo[d]imidazole-2-carboxamide], the IC50 was 101 to 500 nM. As to `O=C(c1nc2cc(C(F)(F)F)ccc2[nH]1)N(CC(F)(F)CO)c1cccc(F)c1Cl` [Compound 185, N-(2-chloro-3-fluorophenyl)-N-(2,2-difluoro-3-hydroxypropyl)-5-(trifluoromethyl)-1H-benzo[d]imidazole-2-carboxamide], the IC50 is at most 100 nM. Under `O=C(c1nc2cc(C(F)(F)F)ccc2[nH]1)N(CC1(F)COC1)c1cccc(F)c1Cl` [Compound 186, N-(2-chloro-3-fluorophenyl)-N-((3-fluorooxetan-3-yl)methyl)-5-(trifluoromethyl)-1H-benzo[d]imidazole-2-carboxamide] stands at most 100 nM. Regarding `C=C(c1cn[nH]c1)c1ccc2[nH]c(C(=O)N(CCO)c3cccc(Cl)c3Cl)nc2c1` [Compound 187], the IC50 was at most 100 nM. Take `Cc1nsc(N(CC2(F)COC2)C(=O)c2nc3cc(C(F)(F)F)ccc3[nH]2)c1Cl` [Compound 188, N-(4-chloro-3-methylisothiazol-5-yl)-N-((3-fluorooxetan-3-yl)methyl)-5-(trifluoromethyl)-1H-benzo[d]imidazole-2-carboxamide]: the IC50 is 101 to 500 nM. Turning to `O=C(c1nc2cc(C3CC3)ccc2[nH]1)N(CCO)c1cccc(Cl)c1Cl` [Compound 190], the IC50 was at most 100 nM. Turning to `O=C(c1nc2cc(C(F)(F)F)ccc2[nH]1)N(c1cccc(Cl)c1Cl)C1CC(O)C1` (centres unmarked) [Compound 193, N-(2,3-dichlorophenyl)-N-(3-hydroxycyclobutyl)-5-(trifluoromethyl)-1H-benzo[d]imidazole-2-carboxamide], the IC50 is at most 100 nM.

`O=C(c1nc2cc(C(F)(F)F)ccc2[nH]1)N(CC1CC(O)C1)c1cccc(F)c1Cl` (centres unmarked) [Compound 194, N-(2-chloro-3-fluorophenyl)-N-((3-hydroxycyclobutyl)methyl)-5-(trifluoromethyl)-1H-benzo[d]imidazole-2-carboxamide]: the IC50 was at most 100 nM. As for `CC1(c2ccc3[nH]c(C(=O)N(CCO)c4cccc(Cl)c4Cl)nc3c2)COC1` [Compound 195], the IC50 is at most 100 nM. For `O=C(c1nc2cc(C(F)(F)F)ccc2[nH]1)N(CC1(O)CC1)c1cccc(Cl)c1Cl` [Compound 197, N-(2,3-dichlorophenyl)-N-((1-hydroxycyclopropyl)methyl)-5-(trifluoromethyl)-1H-benzo[d]imidazole-2-carboxamide], the IC50 is at most 100 nM. Under `CC(C)(O)CCN(C(=O)c1nc2cc(C(F)(F)F)ccc2[nH]1)c1cccc(Cl)c1Cl` [Compound 198, N-(2,3-dichlorophenyl)-N-(3-hydroxy-3-methylbutyl)-5-(trifluoromethyl)-1H-benzo[d]imidazole-2-carboxamide] stands at most 100 nM; under `O=C(c1nc2cc(C(F)(F)F)ccc2[nH]1)N(CCN1CCCS1(=O)=O)c1cccc(Cl)c1Cl` [Compound 199, N-(2,3-dichlorophenyl)-N-(2-(1,1-dioxidoisothiazolidin-2-yl)ethyl)-5-(trifluoromethyl)-1H-benzo[d]imidazole-2-carboxamide], at most 100 nM; under `COCC1(CN(C(=O)c2nc3cc(C(F)(F)F)ccc3[nH]2)c2cccc(Cl)c2Cl)COC1` [Compound 200], at most 100 nM. Under `CC(C)(C)c1ccc2[nH]c(C(=O)N(CCO)c3cccc(F)c3Cl)nc2c1` [Compound 201] stands at most 100 nM; under `O=C(CN(C(=O)c1nc2cc(C(F)(F)F)ccc2[nH]1)c1cccc(Cl)c1Cl)N1CCC1` [Compound 202, N-(2-(azetidin-1-yl)-2-oxoethyl)-N-(2,3-dichlorophenyl)-5-(trifluoromethyl)-1H-benzo[d]imidazole-2-carboxamide], at most 100 nM; under `O=C(c1nc2cc(C(F)(F)F)ccc2[nH]1)N(CCO)c1ccc(F)c(F)c1Cl` [Compound 203, N-(2-chloro-3,4-difluorophenyl)-N-(2-hydroxyethyl)-5-(trifluoromethyl)-1H-benzo[d]imidazole-2-carboxamide], at most 100 nM.

Turning to `COC(=O)C(C)(C)c1ccc2[nH]c(C(=O)N(CC3(F)COC3)c3cccc(Cl)c3Cl)nc2c1` [Compound 204], the IC50 was at most 100 nM. With `CC(C)(CO)c1ccc2[nH]c(C(=O)N(CC3(F)COC3)c3cccc(Cl)c3Cl)nc2c1` [Compound 205], the IC50 was at most 100 nM. Regarding `O=C(c1nc2cc(C(F)(F)F)cc(F)c2[nH]1)N(CCO)c1cccc(Cl)c1Cl` [Compound 206], the IC50 was at most 100 nM. `COc1ccc(Cl)c(N(CC(F)(F)CO)C(=O)c2nc3cc(C(F)(F)F)ccc3[nH]2)n1` [Compound 207, N-(3-chloro-6-methoxypyridin-2-yI)-N-(2,2-difluoro-3-hydroxypropyl)-5-(trifluoromethyl)-1H-benzo[d]imidazole-2-carboxamide]: the IC50 lay within 101 to 500 nM. Under `CC(C)(C#N)c1ccc2[nH]c(C(=O)N(CC(F)(F)CO)c3ccc(F)c(F)c3Cl)nc2c1` [Compound 208] stands at most 100 nM.

As to `CCOC(=O)C(F)(F)CN(C(=O)c1nc2cc(C3CC3)ccc2[nH]1)c1cccc(F)c1Cl` [Compound 209], the IC50 was at most 100 nM. Under `O=C(c1nc2cc(C3CC3)ccc2[nH]1)N(CC(F)(F)CO)c1cccc(F)c1Cl` [Compound 210] stands at most 100 nM.

As for `O=C(c1nc2cc(C(F)(F)F)cc(F)c2[nH]1)N(CC(F)(F)CO)c1cccc(F)c1Cl` [Compound 211], the IC50 is at most 100 nM. To `O=C(c1nc2cc(C(F)(F)F)ccc2[nH]1)N(CC(F)(F)CO)c1ccc(F)c(F)c1Cl` [Compound 212, N-(2-chloro-3,4-difluorophenyl)-N-(2,2-difluoro-3-hydroxypropyl)-5-(trifluoromethyl)-1H-benzo[d]imidazole-2-carboxamide] belongs at most 100 nM; to `O=C(c1nc2cc(C(F)(F)F)ccc2[nH]1)N(CCN1CCOCC1)c1cccc(F)c1Cl` [Compound 214, N-(2-chloro-3-fluorophenyl)-N-(2-morpholinoethyl)-5-(trifluoromethyl)-1H-benzo[d]imidazole-2-carboxamide], 101 to 500 nM; to `O=C(c1nc2cc(C(F)(F)F)ccc2[nH]1)N(CC(F)(F)CO)c1ccc(F)cc1Cl` [Compound 216, N-(2-chloro-4-fluorophenyl)-N-(2,2-difluoro-3-hydroxypropyl)-5-(trifluoromethyl)-1H-benzo[d]imidazole-2-carboxamide], at most 100 nM.

On to `O=C(c1nc2cc(C(F)(F)F)ccc2[nH]1)N(CC(F)(F)CO)c1cc(F)cc(F)c1Cl` [Compound 218, N-(2-chloro-3,5-difluorophenyl)-N-(2,2-difluoro-3-hydroxypropyl)-5-(trifluoromethyl)-1H-benzo[d]imidazole-2-carboxamide], for which the IC50 is at most 100 nM. In the case of `O=C(c1nc2cc(C(F)(F)F)ccc2[nH]1)N(CC(F)(F)CO)c1cc(F)ccc1Cl` [Compound 219, N-(2-chloro-5-fluorophenyl)-N-(2,2-difluoro-3-hydroxypropyl)-5-(trifluoromethyl)-1H-benzo[d]imidazole-2-carboxamide], the 50% inhibitory concentration (IC50) lay in the range of 101 to 500 nM. Under `O=C(c1nc2cc(C(F)(F)F)ccc2[nH]1)N(CC(F)(F)CO)c1cc(F)c(F)cc1Cl` [Compound 220, N-(2-chloro-4,5-difluorophenyl)-N-(2,2-difluoro-3-hydroxypropyl)-5-(trifluoromethyl)-1H-benzo[d]imidazole-2-carboxamide] stands 101 to 500 nM; under `CC(C)(C)c1ccc2[nH]c(C(=O)N(CC3(F)COC3)c3[nH]c(=O)ccc3Cl)nc2c1` [Compound 221, 5-(tert-butyl)-N-(3-chloro-6-oxo-1,6-dihydropyridin-2-yl)-N-((3-fluorooxetan-3-yl)methyl)-1H-benzo[d]imidazole-2-carboxamide], at most 100 nM. To `O=C(c1nc2cc(C3CC3)ccc2[nH]1)N(CC(F)(F)CO)c1ccc(F)c(F)c1Cl` [Compound 222] belongs at most 100 nM; to `CC1(c2ccc3[nH]c(C(=O)N(CC(F)(F)CO)c4cccc(F)c4Cl)nc3c2)COC1` [Compound 223, N-(2-chloro-3-fluorophenyl)-N-(2,2-difluoro-3-hydroxypropyl)-5-(3-methyloxetan-3-yl)-1H-benzo[d]imidazole-2-carboxamide], at most 100 nM.
